Key:
[1] = Specific migration limit (SML) from regulation or hazard assessment (TTC, VEGA QSAR, Cramer Class); details: for SML (or restriction): Source of SML or restriction: HA (internal hazard assessment); for SML or Restriction (mg substance/kg food): source HA (internal hazard assessment), self-derived SML, EU Cube model
[2] = Worst-case calculation, Application 1 yoghurt pot lid exposure scenario; details: 100% migration, 2.0 g/m^2 dry film
[3] = Worst-case calculation (100% migration), standard EU Cube exposure model; details: for Worst-case calculation as a percentage of SML (or restriction), EU Cube / Worst Case Calculation of migration in EU Cube model (as a percentage of SML): 100% migration; for Worst-case calculation as a percentage of SML (or restriction), EU Cube: 2.0 g/m^2 dry film; for Worst Case Calculation of migration in EU Cube model (as a percentage of SML): dry coat weight 2.0 g/m^2
[4] = Worst-case calculation, Application 2 cheese packaging wrap exposure scenario; details: 100% migration, 2.0 g/m^2 dry film
[5] = substance in ink SBDEV980 (Ex. 4B Red)
[6] = substance in ink SBDEV976 (Ex. 4C Cyan)

CCCOC(CC)OCCC [Propane, 1,1-dipropoxy-]
SML (or restriction) [1]: 0.09 mg substance/kg food

O=C1NCCN1 [2-Imidazolidinone]
SML (or restriction) [1]: 4.98 mg substance/kg food

O=Cc1ccc(Cl)cc1 [0000104-88-1, 4-Chlorobenzaldehyde]
SML or Restriction (mg substance/kg food) [1]: 0.09 mg substance/kg food
Worst-case calculation as a percentage of SML (or restriction), Application 1 ([2]; product SBDEV980): 5.5 percentage of SML (or restriction)
Worst-case calculation as a percentage of SML (or restriction), Application 1 ([2]; product SBDEV1285): 5.5 percentage of SML (or restriction)
Worst-case calculation as a percentage of SML (or restriction), EU Cube ([3]; product SBDEV980): 14 percentage of SML (or restriction)
Worst-case calculation as a percentage of SML (or restriction), EU Cube ([3]; product SBDEV1285): 14 percentage of SML (or restriction)
Worst Case Calculation of migration in EU Cube model (as a percentage of SML) [3, 5]: 14 percentage of SML
Worst-case calculation as a percentage of SML (or restriction), Application 2 ([4]; product SBDEV980): 20.2 percentage of SML (or restriction)
Worst-case calculation as a percentage of SML (or restriction), Application 2 ([4]; product SBDEV1285): 20.2 percentage of SML (or restriction)

O=Cc1ccc(Cl)cc1 [4-Chlorobenzaldehyde]
SML (or restriction) [1]: 0.09 mg substance/kg food

O=Cc1ccc(-c2ccccc2)cc1 [0003218-36-8, 4-Phenylbenzaldehyde]
SML or Restriction (mg substance/kg food) [1]: 0.09 mg substance/kg food

c1ccc2ccccc2c1 [0000091-20-3, Naphthalene]
Worst-case calculation as a percentage of SML (or restriction), Application 1 ([2]; product SBDEV976): 0.2 percentage of SML (or restriction)
Worst-case calculation as a percentage of SML (or restriction), Application 1 ([2]; product SBDEV1286): 0.2 percentage of SML (or restriction)
Worst-case calculation as a percentage of SML (or restriction), EU Cube ([3]; product SBDEV976): 0.4 percentage of SML (or restriction)
Worst-case calculation as a percentage of SML (or restriction), EU Cube ([3]; product SBDEV1286): 0.4 percentage of SML (or restriction)
Worst Case Calculation of migration in EU Cube model (as a percentage of SML) [3, 6]: 0.4 percentage of SML
Worst-case calculation as a percentage of SML (or restriction), Application 2 ([4]; product SBDEV976): 0.6 percentage of SML (or restriction)
Worst-case calculation as a percentage of SML (or restriction), Application 2 ([4]; product SBDEV1286): 0.6 percentage of SML (or restriction)

O=C(O)c1ccc(-c2ccccc2)cc1 [4-Phenylbenzoic Acid]
SML (or restriction) [1]: 0.09 mg substance/kg food

CCCC1OC(CCC)OC(CCC)O1 (stereo not shown) [0002396-43-2, 2,4,6-tripropyl-1,3,5-Trioxane]
SML or Restriction (mg substance/kg food) [1]: 0.09 mg substance/kg food
Worst-case calculation as a percentage of SML (or restriction), Application 1 ([2]; product SBDEV976): 24.0 percentage of SML (or restriction)
Worst-case calculation as a percentage of SML (or restriction), Application 1 ([2]; product SBDEV977): 26.4 percentage of SML (or restriction)
Worst-case calculation as a percentage of SML (or restriction), Application 1 ([2]; product SBDEV980): 26.0 percentage of SML (or restriction)
Worst-case calculation as a percentage of SML (or restriction), Application 1 ([2]; product SBDEV1284): 26.0 percentage of SML (or restriction)
Worst-case calculation as a percentage of SML (or restriction), Application 1 ([2]; product SBDEV1285): 26.4 percentage of SML (or restriction)
Worst-case calculation as a percentage of SML (or restriction), Application 1 ([2]; product SBDEV1286): 24.0 percentage of SML (or restriction)
Worst-case calculation as a percentage of SML (or restriction), Application 1 ([2]; product SBDEV1287): 26.7 percentage of SML (or restriction)
Worst-case calculation as a percentage of SML (or restriction), EU Cube ([3]; product SBDEV976): 61 percentage of SML (or restriction)
Worst-case calculation as a percentage of SML (or restriction), EU Cube ([3]; product SBDEV977): 67 percentage of SML (or restriction)
Worst-case calculation as a percentage of SML (or restriction), EU Cube ([3]; product SBDEV980): 60 percentage of SML (or restriction)
Worst-case calculation as a percentage of SML (or restriction), EU Cube ([3]; product SBDEV1284): 66 percentage of SML (or restriction)
Worst-case calculation as a percentage of SML (or restriction), EU Cube ([3]; product SBDEV1285): 67 percentage of SML (or restriction)
Worst-case calculation as a percentage of SML (or restriction), EU Cube ([3]; product SBDEV1286): 61 percentage of SML (or restriction)
Worst-case calculation as a percentage of SML (or restriction), EU Cube ([3]; product SBDEV1287): 68 percentage of SML (or restriction)
Worst Case Calculation of migration in EU Cube model (as a percentage of SML) [3, 6]: 61 percentage of SML
Worst Case Calculation of migration in EU Cube model (as a percentage of SML) ([3]; substance in ink SBDEV977 (Ex. 4A Yellow)): 67 percentage of SML
Worst Case Calculation of migration in EU Cube model (as a percentage of SML) ([3]; substance in ink SBDEV979 (Ex. 4D Black)): 65 percentage of SML
Worst Case Calculation of migration in EU Cube model (as a percentage of SML) [3, 5]: 66 percentage of SML
Worst-case calculation as a percentage of SML (or restriction), Application 2 ([4]; product SBDEV976): 87.8 percentage of SML (or restriction)
Worst-case calculation as a percentage of SML (or restriction), Application 2 ([4]; product SBDEV977): 96.5 percentage of SML (or restriction)
Worst-case calculation as a percentage of SML (or restriction), Application 2 ([4]; product SBDEV980): 95.0 percentage of SML (or restriction)
Worst-case calculation as a percentage of SML (or restriction), Application 2 ([4]; product SBDEV1284): 95.0 percentage of SML (or restriction)
Worst-case calculation as a percentage of SML (or restriction), Application 2 ([4]; product SBDEV1285): 96.5 percentage of SML (or restriction)
Worst-case calculation as a percentage of SML (or restriction), Application 2 ([4]; product SBDEV1286): 87.8 percentage of SML (or restriction)
Worst-case calculation as a percentage of SML (or restriction), Application 2 ([4]; product SBDEV1287): 97.9 percentage of SML (or restriction)

NC(=O)c1ccc(-c2ccccc2)cc1 [0003815-20-1, 4-Phenylbenzamide]
SML or Restriction (mg substance/kg food) [1]: 0.09 mg substance/kg food
Worst-case calculation as a percentage of SML (or restriction), Application 1 ([2]; product SBDEV980): 90.5 percentage of SML (or restriction)
Worst-case calculation as a percentage of SML (or restriction), Application 1 ([2]; product SBDEV1285): 90.5 percentage of SML (or restriction)
Worst-case calculation as a percentage of SML (or restriction), EU Cube ([3]; product SBDEV980): 230 percentage of SML (or restriction)
Worst-case calculation as a percentage of SML (or restriction), EU Cube ([3]; product SBDEV1285): 230 percentage of SML (or restriction)
Worst Case Calculation of migration in EU Cube model (as a percentage of SML) [3, 5]: 230 percentage of SML
Worst-case calculation as a percentage of SML (or restriction), Application 2 ([4]; product SBDEV980): 331.2 percentage of SML (or restriction)
Worst-case calculation as a percentage of SML (or restriction), Application 2 ([4]; product SBDEV1285): 331.2 percentage of SML (or restriction)

O=Cc1ccc(-c2ccccc2)cc1 [4-Phenylbenzaldehyde]
SML (or restriction) [1]: 0.09 mg substance/kg food

CCCC1OC(CCC)OC(CCC)O1 (stereo not shown) [2,4,6-tripropyl-1,3,5-Trioxane]
SML (or restriction) [1]: 0.09 mg substance/kg food

c1ccc(-c2ccc(-c3nc(-c4ccc(-c5ccccc5)cc4)nc(-c4ccc(-c5ccccc5)cc4)n3)cc2)cc1 [0031274-51-8, 1,3,5-Triazine, 2,4,6-Tris([1,1′-Biphenyl]-4-Yl)-]
SML or Restriction (mg substance/kg food) [1]: 5 mg substance/kg food
Worst-case calculation as a percentage of SML (or restriction), Application 1 ([2]; product SBDEV980): 0.1 percentage of SML (or restriction)
Worst-case calculation as a percentage of SML (or restriction), Application 1 ([2]; product SBDEV1285): 0.1 percentage of SML (or restriction)
Worst-case calculation as a percentage of SML (or restriction), EU Cube ([3]; product SBDEV980): 0.3 percentage of SML (or restriction)
Worst-case calculation as a percentage of SML (or restriction), EU Cube ([3]; product SBDEV1285): 0.3 percentage of SML (or restriction)
Worst Case Calculation of migration in EU Cube model (as a percentage of SML) [3, 5]: 0.3 percentage of SML
Worst-case calculation as a percentage of SML (or restriction), Application 2 ([4]; product SBDEV980): 0.4 percentage of SML (or restriction)
Worst-case calculation as a percentage of SML (or restriction), Application 2 ([4]; product SBDEV1285): 0.4 percentage of SML (or restriction)

CCCCCCCC/C=C\CCCCCCCC(=O)OCC [Ethyl Oleate]
SML (or restriction) [1]: 0.09 mg substance/kg food

O=C(O)c1ccc(-c2ccccc2)cc1 [0000092-92-2, 4-Phenylbenzoic Acid]
SML or Restriction (mg substance/kg food) [1]: 0.09 mg substance/kg food
Worst-case calculation as a percentage of SML (or restriction), Application 1 ([2]; product SBDEV980): 2.8 percentage of SML (or restriction)
Worst-case calculation as a percentage of SML (or restriction), Application 1 ([2]; product SBDEV1285): 2.8 percentage of SML (or restriction)
Worst-case calculation as a percentage of SML (or restriction), EU Cube ([3]; product SBDEV980): 7 percentage of SML (or restriction)
Worst-case calculation as a percentage of SML (or restriction), EU Cube ([3]; product SBDEV1285): 7 percentage of SML (or restriction)
Worst Case Calculation of migration in EU Cube model (as a percentage of SML) [3, 5]: 7 percentage of SML
Worst-case calculation as a percentage of SML (or restriction), Application 2 ([4]; product SBDEV980): 10.1 percentage of SML (or restriction)
Worst-case calculation as a percentage of SML (or restriction), Application 2 ([4]; product SBDEV1285): 10.1 percentage of SML (or restriction)

c1ccc(-c2ccc(-c3nc(-c4ccc(-c5ccccc5)cc4)nc(-c4ccc(-c5ccccc5)cc4)n3)cc2)cc1 [1,3,5-Triazine, 2,4,6-Tris([1,1′-Biphenyl]-4-Yl)-]
SML (or restriction) [1]: 5 mg substance/kg food

NC(=O)c1ccc(-c2ccccc2)cc1 [4-Phenylbenzamide]
SML (or restriction) [1]: 0.09 mg substance/kg food

OCCNCCO [0000111-42-2, Diethanolamine]
Worst Case Calculation of migration in EU Cube model: Basis for Safety outcome ([3]; substance in ink SBDEV977 (Ex. 4A Yellow), volatile substance): Converter

CCCOC(CC)OCCC [0004744-11-0, Propane, 1,1-dipropoxy-]
SML or Restriction (mg substance/kg food) [1]: 0.09 mg substance/kg food

N#Cc1ccc(-c2ccccc2)cc1 [4-Phenylbenzonitrile]
SML (or restriction) [1]: 0.09 mg substance/kg food

O=C1NC(=O)C(=C2NC(=O)c3ccccc32)C(=O)N1 [0013481-50-0, 2,4,6(1H,3H,5H)-Pyrimidinetrione, 5-(2,3-Dihydro-3-Oxo-1H-Isoindol-1-Ylidene)-]
SML or Restriction (mg substance/kg food) [1]: 0.09 mg substance/kg food

— patent US11927585B2, “Solvent-based inks and coatings for food contact applications” (SUN CHEMICAL CORPORATION, priority 2020, dated 2024)
